In patent publication US10975056B2 (GlaxoSmithKline Intellectual Property Development Limited, priority 2016, dated 2021):
pEC50, pIC50: −log10 of the molar value. Counter-ions that a name gives are not always drawn. Like-named read-outs stand apart in the source and are kept apart here.

Experiments:
MV-4-11 AML cells = test: MV-4-11 cell proliferation assay (CellTiter-Glo, 6 days); format: cell-based; conditions: Homo sapiens, MV4-11, 144 h; 6 days treatment; binning as pXC50; read-out: MV4-11 Anti-proliferative activity (EC50 category)
Experimental: MV-4-11 Anti-Proliferative Activity (pEC50 Category)
Cell proliferation assay. Optimal cell seeding density was determined empirically for MV-4-11 AML cells by examining the growth of a wide range of seeding densities in a 384-well format to identify conditions that permitted maximal and continued proliferation for 6 days. MV-4-11 cells were plated in duplicate plates 24 hours before treatment with a 20-point two-fold dilution series of compound or 0.15% DMSO. Plates were incubated for 6 days at 37° C. in 5% CO2. Cells were then lysed with CellTiter-Glo (CTG) (Promega) and chemiluminescent signal was detected with an appropriate microplate reader. In addition, an untreated plate of cells was harvested at the time of compound addition (T0) to quantify the initial cell density. CTG values obtained after 6 days of treatment were expressed as a percent of the T0 value and plotted against compound concentration. Data were fit with a four parameter equation to generate a concentration response curve from which growth IC50 values were calculated.

[1] = tested on: erythroid progenitor cells (EPCs); test: Fetal hemoglobin (HbF) ELISA in day 7 erythroid progenitor cells; format: cell-based, human; conditions: Homo sapiens, Erythroid progenitor cell, HbF ELISA, day 7 EPCs, 5 days; read-out: EPC ELISA (pEC50 category) (converted);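 also: for fetal hemoglobin induction normalized to vehicle-treated cells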
In short: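 CD34+-derived EPCs, 1,000 cells/well, rhEPO 3 U/mL; Compound A 22-pt series, […]; 5 d, 37° C, 5% CO2. Freeze-thaw lysis, anti-HbF capture + HRP anti-HbF, TMB, OD450. Normalized to DMSO wells.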

DNMT1 = DNMT1 (Homo sapiens, UniProt P26358); test: DNMT1 biochemical activity, breaklight assay and/or SPA assay
Chain of DNMT1 (P26358 whole entry, looked up): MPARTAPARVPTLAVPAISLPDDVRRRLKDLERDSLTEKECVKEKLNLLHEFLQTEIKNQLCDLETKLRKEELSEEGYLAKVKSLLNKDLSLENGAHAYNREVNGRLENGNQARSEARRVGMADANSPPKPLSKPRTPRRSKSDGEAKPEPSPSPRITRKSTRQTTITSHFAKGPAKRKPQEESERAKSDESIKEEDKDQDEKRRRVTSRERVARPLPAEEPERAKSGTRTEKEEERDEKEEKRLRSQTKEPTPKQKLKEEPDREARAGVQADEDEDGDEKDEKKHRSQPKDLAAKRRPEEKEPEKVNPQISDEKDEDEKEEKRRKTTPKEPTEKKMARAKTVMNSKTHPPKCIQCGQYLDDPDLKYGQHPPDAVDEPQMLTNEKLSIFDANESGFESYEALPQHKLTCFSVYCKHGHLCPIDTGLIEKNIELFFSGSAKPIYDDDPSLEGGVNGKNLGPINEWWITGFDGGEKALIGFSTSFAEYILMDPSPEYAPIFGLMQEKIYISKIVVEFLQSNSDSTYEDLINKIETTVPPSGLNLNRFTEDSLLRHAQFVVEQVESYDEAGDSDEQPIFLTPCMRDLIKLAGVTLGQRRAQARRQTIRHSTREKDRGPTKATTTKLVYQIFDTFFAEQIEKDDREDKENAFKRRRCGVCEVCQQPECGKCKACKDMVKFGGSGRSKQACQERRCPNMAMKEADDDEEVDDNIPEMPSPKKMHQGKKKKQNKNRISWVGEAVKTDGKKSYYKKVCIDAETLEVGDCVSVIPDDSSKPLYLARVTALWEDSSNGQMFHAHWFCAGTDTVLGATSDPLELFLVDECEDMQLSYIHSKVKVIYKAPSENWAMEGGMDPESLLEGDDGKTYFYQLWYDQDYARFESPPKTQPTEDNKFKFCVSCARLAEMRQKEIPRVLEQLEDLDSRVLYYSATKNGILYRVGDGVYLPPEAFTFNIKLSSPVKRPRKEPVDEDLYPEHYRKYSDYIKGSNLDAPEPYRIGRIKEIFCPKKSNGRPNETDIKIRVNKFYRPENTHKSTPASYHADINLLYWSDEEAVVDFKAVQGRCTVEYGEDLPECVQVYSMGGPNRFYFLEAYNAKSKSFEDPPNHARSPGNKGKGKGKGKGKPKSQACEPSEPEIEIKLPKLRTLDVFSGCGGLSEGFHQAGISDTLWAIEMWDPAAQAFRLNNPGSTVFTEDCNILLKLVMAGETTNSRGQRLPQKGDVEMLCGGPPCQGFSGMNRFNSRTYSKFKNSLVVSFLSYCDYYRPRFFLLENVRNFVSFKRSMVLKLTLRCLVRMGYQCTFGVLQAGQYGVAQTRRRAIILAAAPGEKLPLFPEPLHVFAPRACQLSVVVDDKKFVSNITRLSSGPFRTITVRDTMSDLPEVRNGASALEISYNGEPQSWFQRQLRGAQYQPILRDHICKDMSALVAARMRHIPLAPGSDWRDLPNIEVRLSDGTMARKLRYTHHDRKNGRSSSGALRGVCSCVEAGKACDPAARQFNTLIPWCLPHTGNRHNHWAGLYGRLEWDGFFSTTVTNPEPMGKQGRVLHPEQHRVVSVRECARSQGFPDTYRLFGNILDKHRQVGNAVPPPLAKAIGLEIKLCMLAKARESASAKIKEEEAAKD

human full length DNMT1 = human full length DNMT1 (Homo sapiens (Human), UniProt P26358); test: DNMT1 breaklight assay; format: biochemical; conditions: repeated experimental runs, read-out: average IC50 against DNMT1
Chain of human full length DNMT1 (P26358 whole entry): as the sequence (P26358 whole entry, looked up) above
Experimental: DNMT1 breaklight in vitro assays were conducted in a total volume of 50 μl in a standard 384 well format, using black non-binding surface microplates (Corning 3575). Five μl of human full length DNMT1 (produced internally), used at a final concentration of 40 nM, was added to 5 μl of substrate mixture containing final concentrations of 125 nM hemi methylated oligonucleotide (synthesized at ATD Bio; 5′-FAM-[…]5[…]5G5TAGAT-3′ where 5=methyl deoxycitidine) and 2 μM ultrapure SAM (Cisbio #62SAHZLD). Negative control wells used 5 μl of DNMT1 and 5 μl of oligonucleotide but 0 μM SAM. All reagents were made up in 1× assay buffer (20 mM Tris pH 6.8, 25 mM NaCl, 0.5 mM MgCl2, 0.01% Triton X100 and 1 mM DTT). The reaction was incubated at 26° C. for 45 min and then stopped with the addition of 40 μl detection reagent. Detection reagent, made up in 1× Gla assay buffer (20 mM Tris pH 8.0, 80 mM NaCl, 0.75 mM MgCl2, 0.01% Triton X100 and 1 mM DTT) has a final concentration of 100 μM SAH (Sigma #A9384) and 0.0008 units/μl Gla1 restriction endonuclease (Sibenzyme #E494). Following addition of the detection reagent the plate was incubated in the dark at room temperature for 5 hr. Fluorescence intensity was then measured on the PHERAstar FS (BMG Labtech) at Ex 485 nm and Em 520 nm, with a gain of 400 and an integration time of 100 ms.

DNMT3B = DNMT3B (Homo sapiens (Human), UniProt Q9UBC3); test: DNMT3B breaklight assay; format: biochemical; conditions: read-out: DNMT3B Breaklight IC50
human DNMT3a/3l = human DNMT3a/3l (Homo sapiens (Human), UniProt Q9Y6K1); test: DNMT3a/3l breaklight assay; format: biochemical; conditions: read-out: DNMT3A Breaklight IC50
Chain of human DNMT3a/3l (Q9Y6K1 whole entry, looked up): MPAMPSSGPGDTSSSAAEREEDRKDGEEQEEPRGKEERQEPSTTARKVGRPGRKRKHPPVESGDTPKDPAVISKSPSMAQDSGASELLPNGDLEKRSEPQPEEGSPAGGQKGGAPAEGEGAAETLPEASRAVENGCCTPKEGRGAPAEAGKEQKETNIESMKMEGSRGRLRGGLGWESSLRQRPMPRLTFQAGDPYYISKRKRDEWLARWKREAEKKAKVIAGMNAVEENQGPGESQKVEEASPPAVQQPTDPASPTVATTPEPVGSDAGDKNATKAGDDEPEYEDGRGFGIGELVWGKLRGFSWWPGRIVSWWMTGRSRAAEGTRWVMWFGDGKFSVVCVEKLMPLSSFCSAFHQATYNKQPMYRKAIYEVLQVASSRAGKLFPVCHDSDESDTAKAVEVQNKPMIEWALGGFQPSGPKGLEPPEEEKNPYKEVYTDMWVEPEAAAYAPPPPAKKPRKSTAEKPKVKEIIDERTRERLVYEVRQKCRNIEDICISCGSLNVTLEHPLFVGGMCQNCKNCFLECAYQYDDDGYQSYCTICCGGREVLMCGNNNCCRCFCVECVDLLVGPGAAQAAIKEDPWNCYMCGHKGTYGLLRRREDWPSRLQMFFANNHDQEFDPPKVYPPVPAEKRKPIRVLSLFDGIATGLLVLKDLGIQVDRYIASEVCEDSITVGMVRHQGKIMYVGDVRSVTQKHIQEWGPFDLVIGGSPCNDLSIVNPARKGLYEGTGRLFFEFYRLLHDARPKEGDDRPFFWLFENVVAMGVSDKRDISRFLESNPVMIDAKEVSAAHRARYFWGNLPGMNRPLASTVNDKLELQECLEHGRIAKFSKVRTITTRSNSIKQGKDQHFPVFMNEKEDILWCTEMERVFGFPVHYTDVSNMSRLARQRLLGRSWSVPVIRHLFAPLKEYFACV
Chain of human DNMT3a/3l (Q9UJW3 whole entry partner, looked up): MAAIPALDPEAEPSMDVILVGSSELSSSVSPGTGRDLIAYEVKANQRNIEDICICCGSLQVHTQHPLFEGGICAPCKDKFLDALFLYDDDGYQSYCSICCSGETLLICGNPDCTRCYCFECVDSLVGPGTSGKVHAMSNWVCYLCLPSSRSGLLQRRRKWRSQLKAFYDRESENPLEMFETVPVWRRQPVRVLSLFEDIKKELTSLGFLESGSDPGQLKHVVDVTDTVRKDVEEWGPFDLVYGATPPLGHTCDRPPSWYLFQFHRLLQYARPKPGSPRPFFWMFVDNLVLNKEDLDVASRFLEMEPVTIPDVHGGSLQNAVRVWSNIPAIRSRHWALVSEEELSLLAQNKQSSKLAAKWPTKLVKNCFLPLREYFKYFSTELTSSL
Experimental: DNMT3a/3l Breakliqht Assay
DNMT3a/3l breaklight in vitro assays were conducted in a total volume of 50 μl in a standard 384 well format, using black non-binding surface microplates (Corning #3575). […] Negative control wells used 5 μl of DNMT3a/3l and 5 μl of oligonucleotide but also included 200 μM SAH. All reagents were made up in 1× assay buffer (20 mM Tris pH 7.4, 100 mM NaCl, 1.5 mM EDTA, 0.1 mM MgCl2, 1 mM CHAPS and 1 mM DTT). The reaction was incubated at 37° C. for 90 min and then stopped with the addition of 40 μl detection reagent. Detection reagent, made up in 1× Gla assay buffer (20 mM Tris pH 8.0, 80 mM NaCl, 0.75 mM MgCl2, 0.01% Triton X100 and 1 mM DTT) has a final concentration of 200 μM SAH (Sigma #A9384) and 0.0008 units/μl Gla1 restriction endonuclease (Sibenzyme #E494). Following addition of the detection reagent the plate was incubated in the dark at room temperature for 5 hr. Fluorescence intensity was then measured on the PHERAstar FS (BMG Labtech) at Ex 485 nm and Em 520 nm, with a gain of 400 and an integration time of 100 ms.

[2] = binned activity in either the breaklight or the SPA assay
[3] = binned activity in either the breaklight or the SPA assay, read-out: DNMT1 BioChemical (pIC50 category) (converted)

pEC50 (MV-4-11 AML cells)	EC50 [1] [nM]	DNMT1 BioChemical (pIC50 category) (DNMT1; [2])	IC50 (DNMT1; [3]) [nM]	pIC50 (human full length DNMT1)	pIC50 (DNMT3B)	pIC50 (human DNMT3a/3l)	IC50 (DNMT1; breaklight assay and/or SPA assay, repeated experimental runs, read-out: average pIC50 against DNMT1 (converted)) [nM]	Structure (SMILES)	average pIC50 against DNMT1 (DNMT1; breaklight assay and/or SPA assay, repeated experimental runs)
6.00 to 6.50	< 316				< 3.30			CCc1c(C#N)c(S[C@@H](C(N)=O)c2ccccc2)nc(N(C)C)c1C#N [Example 64, (R)-2-((3,5-dicyano-6-(dimethylamino)-4-ethylpyridin-2-yl)thio)-2-phenylacetamide]	
4.50 to 6.00	1000 to 31600		316 to 1000					CCc1c(C#N)c(N[C@@H](C(N)=O)c2ccccc2)nc(N2CCCN(CCO)CC2)c1C#N [Example 114, (2R)-2-({3,5-Dicyano-4-ethyl-6-[4-(2-hydroxyethyl)-1,4-diazepan-1-yl]pyridin-2-yl}amino)-2-phenylacetamide]	
4.50 to 6.00	< 316	D (Category D: ≥6.5)						CCc1c(C#N)c(SC(C(N)=O)c2ccccc2)nc(N2CCN(CCN)CC2)c1C#N (stereo not drawn) [Example 123, 2-((6-(4-(2-Aminoethyl)piperazin-1-yl)-3,5-dicyano-4-ethylpyridin-2-yl)thio)-2-phenylacetamide]	
4.50 to 6.00			316 to 1000		< 3.30	< 3.30	316 to 1000	N#Cc1c(SC(C(N)=O)c2ccccc2)nc(N2CCOCC2)c(C#N)c1C1CC1 (stereo not drawn) [Example 130, 2-[(3,5-Dicyano-4-cyclopropyl-6-morpholino-2-pyridyl)sulfanyl]-2-phenyl-acetamide]	
> 6.50	< 316	D (Category D: ≥6.5)						CCc1c(C#N)c(SC(C(N)=O)c2ccccc2)nc(N(C)CC(N)=O)c1C#N (stereo not drawn) [Example 145, 2-((6-((2-Amino-2-oxoethyl)(methyl)amino)-3,5-dicyano-4-ethylpyridin-2-yl)thio)-2-phenylacetamide]	
4.50 to 6.00	316 to 1000		316 to 1000					N#Cc1c(SC(C(N)=O)c2ccccc2)nc(N2CCCC(O)C2)c(C#N)c1C1CC1 (stereo not drawn) [Example 164, 2-(3,5-Dicyano-4-cyclopropyl-6-(3-hydroxypiperidin-1-yl)pyridin-2-ylthio)-2-phenylacetamide]	
6.00 to 6.50	< 316	D (Category D: ≥6.5)						CCc1c(C#N)c(SC(C(N)=O)c2ccccc2)nc(N2CCCN(CCO)CC2)c1C#N (stereo not drawn) [Example 318, 2-((3,5-Dicyano-4-ethyl-6-(4-(2-hydroxyethyl)-1,4-diazepan-1-yl)pyridin-2-yl)thio)-2-phenylacetamide]	

The next lines start with the molecule.

Structure (SMILES)	pEC50 (MV-4-11 AML cells)	EC50 [1] [nM]	DNMT1 BioChemical (pIC50 category) (DNMT1; [2])	IC50 (DNMT1; [3]) [nM]	pIC50 (human full length DNMT1)	pIC50 (DNMT3B)	pIC50 (human DNMT3a/3l)	IC50 (DNMT1; breaklight assay and/or SPA assay, repeated experimental runs, read-out: average pIC50 against DNMT1 (converted)) [nM]	average pIC50 against DNMT1 (DNMT1; breaklight assay and/or SPA assay, repeated experimental runs)
N#Cc1c(SC(C(N)=O)c2ccccc2)nc(N2CCCNCC2)c(C#N)c1C1CC1 (stereo not drawn) [Example 4, 2-((3,5-dicyano-4-cyclopropyl-6-(1,4-diazepan-1-yl)pyridin-2-yl)thio)-2-phenylacetamide]	4.50 to 6.00	< 316	D (Category D: ≥6.5)						
CN(C)C1CCCN(c2nc(SC(C(N)=O)c3ccccc3)c(C#N)c(C3CC3)c2C#N)C1 (stereo not drawn) [Example 18, 2-((3,5-Dicyano-4-cyclopropyl-6-(3-(dimethylamino)piperidin-1-yl)pyridin-2-yl)thio)-2-phenylacetamide]	4.50 to 6.00	< 316	D (Category D: ≥6.5)						
N#Cc1c(SC(C(N)=O)c2ccncc2)nc(N2CCCNCC2)c(C#N)c1C1CC1 (stereo not drawn) [Example 31, 2-((3,5-dicyano-4-cyclopropyl-6-(1,4-diazepan-1-yl)pyridin-2-yl)thio)-2-(pyridin-4-yl)acetamide]	4.50 to 6.00	> 31600		316 to 1000					
N#Cc1c(SC(C(N)=O)c2ccncc2)nc(N2CC[C@H](O)C2)c(C#N)c1C1CC1 (stereo partly drawn) [Example 34, 2-((3,5-dicyano-4-cyclopropyl-6-((S)-3-hydroxypyrrolidin-1-yl)pyridin-2-yl)thio)-2-(pyridin-4-yl)acetamide]	4.50 to 6.00	1000 to 31600		316 to 1000					
CCc1c(C#N)c(SC(C(N)=O)c2ccccc2)nc(N2CCN(CCCN)CC2)c1C#N (stereo not drawn) [Example 37, 2-((6-(4-(3-aminopropyl)piperazin-1-yl)-3,5-dicyano-4-ethylpyridin-2-yl)thio)-2-phenylacetamide]		1000 to 31600		316 to 1000	≥ 6.30				
N#Cc1c(SC(C(N)=O)c2ccccc2)nc(N2CCC(N3CCCC3)CC2)c(C#N)c1C1CC1 (stereo not drawn) [Example 42, 2-((3,5-Dicyano-4-cyclopropyl-6-(4-(pyrrolidin-1-yl)piperidin-1-yl)pyridin-2-yl)thio)-2-phenylacetamide trifluoroacetate]	6.00 to 6.50	< 316	D (Category D: ≥6.5)						
CCc1c(C#N)c(SC(C(N)=O)c2ccccc2)nc(N2CCC3(CC2)CNC3)c1C#N (stereo not drawn) [Example 43, 2-((3,5-Dicyano-4-ethyl-6-(2,7-diazaspiro[3.5]nonan-7-yl)pyridin-2-yl)thio)-2-phenylacetamide]		316 to 1000	D (Category D: ≥6.5)		≥ 6.30				
CCc1c(C#N)c(SC(C(N)=O)c2ccccc2)nc(N2CCC3(CNC3)C2)c1C#N (stereo not drawn) [Example 44, 2-((3,5-Dicyano-4-ethyl-6-(2,6-diazaspiro[3.4]octan-6-yl)pyridin-2-yl)thio)-2-phenylacetamide]	4.50 to 6.00	1000 to 31600	D (Category D: ≥6.5)						
CCc1c(C#N)c(SC(C(N)=O)c2ccccc2)nc(N2CCC2)c1C#N (stereo not drawn) [Example 58, 2-[[6-(azetidin-1-yl)-3,5-dicyano-4-ethyl-2-pyridyl]sulfanyl]-2-phenyl-acetamide]		1000 to 31600	D (Category D: ≥6.5)		< 6.12				
CCc1c(C#N)c(SC(C(N)=O)c2ccccc2)nc(N2C[C@@H](C)N[C@@H](C)C2)c1C#N (stereo partly drawn) [Example 61, 2-((3,5-Dicyano-6-((3S,5R)-3,5-dimethylpiperazin-1-yl)-4-ethylpyridin-2-yl)thio)-2-phenylacetamide]		< 316	D (Category D: ≥6.5)		≥ 6.30				
CCc1c(C#N)c(SC(C(N)=O)c2ccccc2)nc(N2CCC(C3CCNCC3)CC2)c1C#N (stereo not drawn) [Example 122, 2-((6-([4,4′-Bipiperidin]-1-yl)-3,5-dicyano-4-ethylpyridin-2-yl)thio)-2-phenylacetamide; 2,2,2-trifluoroacetic acid]	6.00 to 6.50	< 316	D (Category D: ≥6.5)						> 6.5
